Experimental data as given in patent US5698567A, “Heterocyclic spiro compounds” (Adir Et Compagnie, priority 1995, dated 1997).
pIC50: −log10 of the molar value. Counter-ions that a name gives are not always drawn.

Tests used:
[1] = tested on: 5-lipoxygenase; experiment: Inhibition of the synthesis of LTB4 by the peritoneal PMN of rats in vitro (5-lipoxygenase-inhibiting activity); assay type: cell-based, rat; settings: for LTB4 % Inhibition: rat peritoneal PMN; for LTB4 % Inhibition / pIC50: A23187 10^-6 M; for pIC50: rat peritoneal PMN in vitro
Excerpt: 1.1 Determination of 5-1ipoxygenase-inhibiting activity in vitro (see Goldyne M. E., Burrish G. F., Poubelle P. and Borgeat P., Arachidonic Acid Metabolism among human mononuclear leukocytes. The Journal of Biological Chemistry. Vol. 259, N° 4, p. 8815-8819, 1984, and New Chang C. and Gin Wensu. Stimulation of 5-Lipoxygenase Activity in Polymorphonuclear Leukocytes of Rats by Caseinate Treatment. Biochemical Pharmacology. Vol. 36, N° 8, p. 3033-3036, 1987).
(§1) 5-Lipoxygenase-inhibiting activity was determined on peritoneal leukocytes of rats. Leukocytosis is induced in male OFA rats (IFFA CREDO) weighing 200-250 g by the intraperitoneal injection of 12% sodium caseinate. 18 hours later, the cells are collected by washing the abdominal cavity. The number of cells is adjusted to 2×10^6 /ml.
(§2) The cell suspension is incubated for 10 minutes at 37° C. in the presence of Ca^2+ 5×10^-4 M and Mg^2+ 2×10^-3 M and of various concentrations of the test products. The cells are then stimulated with the calcium ionophore A23187 at a concentration of 10^-6 M for 5 minutes at 37° C. Controls are carded out by incubating the cells with the solvent for the products: 2% DMSO.
After stopping the reaction at +4° C. and centrifugation, the quantity of LTB4 in ng/2×10^6 cells in the supernatants is determined by the E.I.A. method (Statlergenes France). The percentage inhibition is calculated as follows: [formula]
(§3) Metabolism of arachidonic acid by the peritoneal PMN of rats stimulated
(§4) for 5 minutes in vitro by the calcium ionophore (A23187): 10^-6 M.
(§5) Incubation of the products with the cells for 10 minutes prior to
(§6) stimulation with the ionophore.

[2] = tested on: synthesis of PGE2 by the peritoneal PMN of rats; experiment: Inhibition of the synthesis of PGE2 by the peritoneal PMN of rats in vitro; assay type: cell-based, rat; settings: A23187; for pIC50: rat peritoneal PMN in vitro; for inhibition at 100 µM: 10^-4 M
Protocol: as §1, §2, §3, §4, §5, §6

SMILES	LTB4 % Inhibition ([1]; 10^-6 M) [%]	LTB4 % Inhibition ([1]; 10^-7 M) [%]	pIC50 [1]	also measured
O=C1NCC2(CCN(CC(O)c3ccc(OCc4ccc5ccccc5n4)cc3)CC2)O1 (racemic) [Example 5, (R,S)-8-{2-hydroxy-2-[4-(quinol-2-ylmethoxy)phenyl]ethyl}-3,8-diaza-1-oxa-2-oxospiro[4,5]decane]	95	15		pIC50 [2]: < 4.00
O=C1NCC2(CCN(CC(c3ccccc3)c3ccc(OCc4ccc5ccccc5c4)cc3)CC2)O1 (racemic) [Example 7, (R,S)-8-{2-[4-(naphth-2-ylmethoxy)phenyl]-2-phenylethyl}-3,8-diaza-1-oxa-2-oxospiro[4,5]decane]		36	< 6.00	
O=C1NCC2(CCN(CC(c3ccccc3)c3ccc(OCc4ccc(-c5ccccc5)cn4)cc3)CC2)O1 (racemic) [Example 9, (R,S)-8-{2-phenyl-2-[4-(5-phenylpyrid-2-ylmethoxy)phenyl]ethyl}-3,8-diaza-1-oxa-2-oxospiro[4,5]decane]			< 7.00	
c1ccc(C(CN2CCC3(CC2)OCCO3)c2ccc(OCc3ccc4ccccc4n3)cc2)cc1 (racemic) [Example 10, (R,S)-8-{2-phenyl-2-[4-(quinol-2-ylmethoxy)phenyl]ethyl}-8-aza-1,4-dioxaspiro[4,5]decane dihydrochloride]		28	< 7.00	LTB4 % Inhibition ([1]; 10^-5 M): 92%
O=C1NC2(CCN(CC(c3ccccc3)c3ccc(OCc4ccc5ccccc5n4)cc3)CC2)CO1 (racemic) [Example 11, (R,S)-8-{2-phenyl-2-[4-(quinol-2-ylmethoxy)phenyl]ethyl}-1,8-diaza-3-oxa-2-oxospiro[4,5]decane]		38	< 7.00	LTB4 % Inhibition ([1]; 10^-5 M): 76%
O=C1OC2(CCN(CC(c3ccccc3)c3ccc(OCc4ccc5ccccc5n4)cc3)CC2)CN1CCc1ccccc1 (racemic) [Example 12, (R,S)-3-(2-phenylethyl)-8-{2-phenyl-2-[4-(quinol-2-ylmethoxy)phenyl]ethyl}-3,8-diaza-1-oxa-2-oxospiro[4,5]decane]		53	7.00	LTB4 % Inhibition ([1]; 10^-5 M): 98%; inhibition at 100 µM ([2]; rat peritoneal PMN): 86%; inhibition at 10 µM ([2]; 10^-5 M, rat peritoneal PMN): 92%; pIC50 [2]: > 5.00
CC1NC(=O)OC12CCN(CC(c1ccccc1)c1ccc(OCc3ccc4ccccc4n3)cc1)CC2 (racemic) [Example 13, (R,S), (R,S)-4-methyl-8-{2-phenyl-2-[4-quinol-2-ylmethoxy)phenyl]ethyl}-3,8-diaza-1-oxa-2-oxospiro[4,5]decane]		21	< 7.00	LTB4 % Inhibition ([1]; 10^-5 M): 91%
O=C1NCC2(CCN(C(c3ccccc3)c3ccc(OCc4ccc5ccccc5c4)cc3)CC2)O1 (racemic) [Example 23, (R,S)-8-{[4-(naphth-2-ylmethoxy)phenyl]phenylmethyl}-3,8-diaza-1-2-oxospiro[4,5]decane]		9	< 6.00	
Cn1c(=O)ccc2cc(COc3ccc(C(c4ccccc4)N4CCC5(CC4)CNC(=O)O5)cc3)ccc21 (racemic) [Example 25, (R,S)-8-{[4-(1-methyl-2-oxo-1H-quinol-6-ylmethoxy)phenyl]phenylmethyl}-3,8-diaza-1-oxa-2-oxospiro[4,5]decane]	7	8		
O=C1NCC2(CCN(C(c3ccccc3)c3ccc(OCc4ccc(-c5ccccc5)cn4)cc3)CC2)O1 (racemic) [Example 26, (R,S)-8-{phenyl-[4-(5-phenylpyrid-2-ylmethoxy)phenyl]methyl}-3,8-diaza-1-oxa-2-oxospiro[4,5]decane]			< 7.00	
O=C1NCC2(CCN(CC(Cc3ccccc3)c3ccc(OCc4ccccc4)cc3)CC2)O1 (racemic) [Example 31, (R,S)-8-[2-(4-benzyloxyphenyl)-3-phenylpropyl]-3,8-diaza-1-oxa-2-oxospiro[4,5]decane hydrochloride]	16		< 6.00	
O=C1NCC2(CCN(CC(Cc3ccc(Cl)cc3)c3ccc(OCc4ccc(-c5ccccc5)cn4)cc3)CC2)O1 (racemic) [Example 35, (R,S)-8-{3-(4-chlorophenyl)-2-[4-(5-phenylpyrid-2-ylmethoxy)phenyl]propyl}-3,8-diaza-1-oxa-2-oxospiro[4,5]decane]			< 6.00	
O=C1NCC2(CCN(CC(c3ccc(OCc4ccc5ccccc5n4)cc3)C3CCCC3)CC2)O1 (racemic) [Example 36, (R,S)-8-{2-cyclopentyl-2-[4-(quinol-2-ylmethoxy)phenyl]ethyl}-3,8-diaza-1-oxa-2-oxospiro[4,5]decane hydrochloride]			< 7.00	
O=C1NCC2(CCN(C(=O)C(c3ccc(OCc4ccc5ccccc5n4)cc3)C3CCCC3)CC2)O1 (racemic) [Example 43, (R,S)-8-{cyclopentyl-[4-(quinol-2-ylmethoxy)phenyl]acetyl}-3,8-diaza-1-oxa-2-oxospiro[4,5]decane hydrochloride]		8	< 7.00	
O=C1NCC2(CCN(CCc3ccc(OCc4ccc5ccccc5n4)cc3)CC2)O1 [Example 2, 8-{2-[4-(quinol-2-ylmethoxy)phenyl]ethyl}-3,8-diaza-1-2-oxospiro[4,5]decane]	90			inhibition at 100 µM ([2]; rat peritoneal PMN): 23%; pIC50 [2]: < 4.00
Cn1c(=O)ccc2cc(COc3ccc(CCN4CCC5(CC4)CNC(=O)O5)cc3)ccc21 [Example 3, 8-{2-[4-[(1-methyl-2-oxo-1H-quinol-6-yl)methoxy]phenyl]ethyl}-3,8-diaza-1-oxa-2-oxospiro[4,5]decane]			< 4.00	
O=C1NCC2(CCN(CC(=O)c3ccc(OCc4ccc5ccccc5n4)cc3)CC2)O1 [Example 28, 8-{2-oxo-2-[4-(quinol-2-ylmethoxy)phenyl]ethyl}-3,8-diaza-1-oxa-2-oxospiro[4,5]decane]	37		< 6.00	
O=C1NCC2(CCN(C(=O)Cc3ccc(OCc4ccc5ccccc5n4)cc3)CC2)O1 [Example 29, 8-{[4-(quinol-2-ylmethoxy)phenyl]acetyl}-3,8-diaza-1-oxa-2-oxospiro[4,5]decane]	18	30	< 6.00	
O=C1NCC2(CCN(C(=O)c3ccc(OCc4ccc5ccccc5n4)cc3)CC2)O1 [Example 30, 8-[4-(quinol-2-ylmethoxy)benzoyl]-3,8-diaza-1-oxa-2-oxospiro[4,5]decane]	14		< 6.00	
O=C1NCC2(CCN(CCc3ccccc3)CC2)O1 [fenspiride, 8(2-phenylethyl)-3,8-diaza-1-oxa-2-oxospiro[4,5]decane, reference compound]				activity of reference product tested under the same conditions (Table 1) ([1]; 10^-4 M): inactive
